{"source": "patent US8377918B2", "about": "(ACC Therapeutics Inc, priority 2005, dated 2013)", "key": {"PC-3 cells": {"system": "PC-3 cells", "assay": "MTT cell proliferation assay, PC-3 prostate cancer cells", "type": "cell-based, human", "settings": "24 h", "description": "FIG. 8. […] Prostate cancer cells PC-3 and DU145 were seeded in 96-well plates at 1×10^4 cells/well. […] The cell proliferation was assayed by culturing the cells for 24 h, then adding 10 μl of MTT reagent with incubation for 2 h. The reaction was stopped by adding 100 μl of solubilization solution. The relative cell proliferation was obtained by the reading at 590 nm which was recorded in a spectrophotometer, and normalized to the value of control.\nFIG. 9. […] A, Cisplatin-resistant ovarian cancer cell line A2780/CP70, and B, prostate cancer cells PC-3 were seeded in 96-well plates at 1×10^4 cells/well and incubated overnight.\n(§1) FIG. 17. […] A, the prostate cancer cells PC-3 and DU145; B, colon cancer cells Colo-205 and HCT-116; C, lung cancer cells A549 and H460 cells were plated at 1×10^4 cells per well in a 96 well plate in 100 μl of media.\nFIG. 18. […] A and B, the prostate cancer cells PC-3 and DU145; C, colon cancer cells Colo-205 and HCT-116; D, lung cancer cells A549 and H460 cells were plated at 1×10^4 cells per well in a 96 well plate in 100 μl of media. […] The cell proliferation was analyzed by MTT assay.\nFIG. 19. […] A, prostate cancer cells PC-3; and B, DU145 cells were plated at 1×10^4 cells per well in a 96 well plate in 100 μl of media. […] Cell proliferation was examined by MTT assay.\nFIG. 23. […] Cell proliferation was examined by MTT assay."}, "H460 cells": {"system": "H460 cells", "assay": "MTT cell proliferation assay, H460 lung cancer cells", "type": "cell-based, human", "settings": "H460, apigenin alone, 24 h", "description": "FIG. 17. […] A, the prostate cancer cells PC-3 and DU145; B, colon cancer cells Colo-205 and HCT-116; C, lung cancer cells A549 and H460 cells were plated at 1×10^4 cells per well in a 96 well plate in 100 μl of media. […] FIG. 18. […] A and B, the prostate cancer cells PC-3 and DU145; C, colon cancer cells Colo-205 and HCT-116; D, lung cancer cells A549 and H460 cells were plated at 1×10^4 cells per well in a 96 well plate in 100 μl of media. […] The cell proliferation was analyzed by MTT assay. […] FIG. 22. […] A, colon cancer cells Colo-205 and HCT-116; B, lung cancer cells A549 and H460 cells were plated at 1×10^4 cells per well in a 96 well plate the day before the treatment. […] Cell proliferation was examined by MTT assay. […] FIG. 25."}, "[1]": {"system": "A549 cell-induced tumor angiogenesis", "assay": "A549 Matrigel plug angiogenesis in nude mice", "type": "in vivo", "settings": "15 μM apigenin in plug, 15 days", "description": "FIG. 16. […] Each treatment group contained four mice. The mice were euthanized 15 days after implantation. Representative Matrigel plugs from the solvent- and apigenin-treated groups. C, D, the relative angiogenesis was analyzed by the levels of RBC hemoglobin, a surrogate marker, in the Matrigel plugs. The hemoglobin content was analyzed by adding 1×RBC lysis buffer (1 mM EDTA and 5 mM potassium/sodium phosphate buffer, pH 8-8.5) to a plug, followed by incubation at 4° C. overnight. Hemoglobin levels were determined by the Drabkin method by a commercial assay kit (Sigma) according to the manufacturer's instruction with some modification. […] Relative hemoglobin content is the hemoglobin level (milligrams) divided by the final volume of each plug. The data are the mean±S.E. of eight Matrigel plugs for each experiment. *, significant difference compared with the solvent control (p<0.05)."}, "normal human cells": {"system": "normal human cells", "assay": "Apoptosis of normal human cells (GM847 fibroblasts)", "type": "cell-based", "settings": "at up to 40 μM apigenin", "description": "(§2) FIG. 1. […] (A) A2780/CP70 cells and human fibroblast GM847 cells were seeded in 96-well plate at 4×10^3 cells per well and incubated overnight. […] The cells were incubated for 24 h. Cell proliferation was determined by MTT reduction. […] Cells were trypsinized, harvested, washed once with PBS buffer, and stained using the Annexin-V-Folus Kit as per the manufacture's instructions. […] After incubation, all cells were collected and total DNA was isolated. Eight (8) μg of DNA was resolved on 1.8% agarose gel. […] (D) Treatment of GM847 cells was the same as that of 5D. […] Cleavage of caspase-3 and PARP was detected by western-blot."}, "A2780/CP70 cells": {"system": "A2780/CP70 cells", "assay": "Annexin V apoptosis assay, A2780/CP70", "type": "cell-based, human", "settings": "24 h", "description": "as §2\nFIG. 10. […] The cisplatin-resistant ovarian cancer A2780/CP70 cells were seeded in a petri dish. […] After treatment, the cells were collected and the relative cellular apoptosis was analyzed by Annexin V Kit (Roche), and compared to the control."}, "HCT-116 cells": {"system": "HCT-116 cells", "assay": "MTT cell proliferation assay, HCT-116 colon cancer cells", "type": "cell-based, human", "settings": "HCT-116, apigenin alone, 24 h", "description": "as §1"}, "[2]": {"system": "VEGF transcriptional activity in A549 cells", "assay": "VEGF reporter luciferase assay in A549", "type": "cell-based, human", "settings": "A549, 5, 10, and 20 μM, 24 h", "description": "FIG. 13. […] A549 cells were seeded on a six-well plate. When they reached 60 to 70% confluence, the cells were transfected using Lipofectamine reagent. A, A549 cells were cotransfected with 1 μg of pGL-StuI VEGF reporter and 0.3 μg of β-gal plasmid as described. […] Cells were then lysed and the supernatants were used to assay Luc and β-gal activities. The relative luciferase activities in the cell extracts were assayed by the ratio of Luc/β-gal activity and normalized to the value in the solvent DMSO control. B, cells were cotransfected with 1 μg of pMAP11wt VEGF reporter and 0.3 μg of β-gal plasmid as described. Cells were treated with different doses of apigenin as described above. C, the cells were transfected with pMAP11mut VEGF reporter (with 3-bp substitution of pMAP11wt), and treated as above “B”."}, "A549 tumors": {"system": "A549 tumors", "assay": "A549 tumor growth in nude mice", "type": "in vivo", "settings": "3 mg/kg intraperitoneal three times a week, day 40", "description": "FIG. 15. […] Each treatment group contained 10 mice. […] The mice were euthanized on day 40. A, representative tumors from the control and apigenin-treated groups. Scale bar, 1 cm. B, tumor volumes were measured by the width and length of tumors from 10 mice in each treatment when tumors were visible. The mean±S.D. were obtained from 10 mice. C, the tumors were removed from mice, measured by the width and length, and analyzed as above. D, the mean±S.D. of the tumor weight. *, significant difference when compared with the solvent control (p<0.05)."}}, "data": [{"compound": "O=c1cc(-c2ccc(O)cc2)oc2cc(O)cc(O)c12", "note": "[apigenin, 4′,5,7,-trihydroxyflavone]", "values": [{"measurement": "effect on sensitivity to etoposide treatment", "setting": "PC-3 cells; PC-3, 15 μM apigenin", "value": "increased the sensitivity"}, {"measurement": "effect on cell proliferation", "setting": "PC-3 cells; PC-3, apigenin alone", "value": "inhibited"}, {"measurement": "effect on cell proliferation", "setting": "H460 cells", "value": "inhibited the proliferation"}, {"measurement": "effect on tumor angiogenesis (hemoglobin content of Matrigel plugs)", "setting": "[1]", "value": "inhibited A549 cell-induced tumor angiogenesis"}, {"measurement": "induction of apoptosis of normal human cells", "setting": "normal human cells", "value": "did not induce apoptosis"}, {"measurement": "cells undergoing apoptosis", "setting": "A2780/CP70 cells; A2780/CP70, 10 μM apigenin or 10 μM apigenin plus 10 μM cisplatin", "value": 12, "unit": "%"}, {"measurement": "induction of apoptosis", "setting": "A2780/CP70 cells; A2780/CP70, apigenin alone", "value": "specifically induced apoptosis"}, {"measurement": "effect on cell proliferation", "setting": "HCT-116 cells", "value": "inhibited the proliferation"}, {"measurement": "effect on VEGF transcriptional activation", "setting": "[2]", "value": "dramatically suppresses"}, {"measurement": "effect on tumor growth in vivo", "setting": "A549 tumors", "value": "inhibited tumor growth in vivo"}]}]}
